# From publication PMC11215747, “Improved Rigidin-Inspired Antiproliferative Agents with Modifications on the 7-Deazahypoxanthine C7/C8 Ring Systems” (Journal of Medicinal Chemistry, 2024)
# “Also recorded” adds a separate entry of the source. Read-outs that look alike come from different tables or passages of the source.
# Legend:
# PNT1A cells = test: MTT cytotoxicity assay against normal epithelial cell line PNT1A; format: cell-based; conditions: molecular formula strings CSV, read-out: PNT1A GI50
# Description: (§1) The 3-(4,5-dimethylthiazol-2-yl)-2,5-diphenyltetrazolium bromide (MTT) assay was employed to evaluate the antiproliferative activities of the synthesized 7-deazahypoxathine analogues. The HeLa, PNT1A, or PANC-1 cell lines were assessed by trypsinizing and seeding 4 × 10^3 cells per well into 96-well plates. Synthesized compounds were dissolved in DMSO at a concentration of either 50 mM or 100 mM before cell treatment. Cells were grown for 24 h and then treated with compounds at concentrations ranging from 0.04 to 100 μM and incubated for 48 h in 200 μL media. Twenty microliters of MTT reagent in serum-free medium (5 mg/mL) was added to each well and incubated further for 2 h. Media was removed and the resulting formazan crystals were resolubilized in 200 μL of DMSO. A Thermomax Molecular Device plate reader was utilized to measure A490. Experiments were performed in quadruplicate and repeated at least twice for each compound. The control comprised of cells treated with 0.1% DMSO. One micromolar phenyl arsine oxide (PAO) was utilized as a positive killing control.
# HeLa cells [1] = test: Annexin V apoptosis assay and cell-fate tracking in HeLa cells; format: cell-based, Human; conditions: 20 nM; for apoptosis at the 30 hour time point (Annexin V fluorescence): 6 biological replicates, one-way ANOVA amongst compounds; for total numbers of cells that died following mitotic arrest: single-cell tracking, >130 cells per treatment
# Description: To directly assess apoptosis in living cells, HeLa cells were plated (six biological replicates per condition) in 96-well Imagelock Plates (Sartorius BA-04855) at a density of 1,562.5 cells/cm^2. The following day, cells were placed in media containing IncuCyte Annexin V Dye (Sartorius 4642) supplemented with either 0.1% Dimethyl sulfoxide or test compounds (20 nM), and plates were placed in a Sartorius Incucyte S3 live cell imaging system. Plates were scanned hourly, with phase contrast and green fluorescence images were acquired at three positions per well. Raw fluorescence data was processed using Incucyte software, and Prism Graphpad was used for data visualization and statistical analysis. To track individual cell fates, combined phase contrast/fluorescence time lapse sequences were exported from multiple wells per condition, and cell fates individual cells were scored and tabulated using Graphpad Prism software.
# HeLa cells [2] = test: Microtubule organization by immunolabeling in HeLa cells; format: cell-based, Human; conditions: 4 h; for effect on interphase microtubules / effect on spindle morphology: at GI50 concentrations
# Description: To examine microtubule morphology in rigidin-treated cells, HeLa cells were incubated for 4 h in the presence or absence of test compound before being fixed with 3.7% formaldehyde in PBS and permeabilized with 0.1% Triton X-100 in PBS. After blocking the cells with 3% bovine serum albumin in PBS, they were probed with antibodies for the centromere marker CENP-B (Abcam, code ab25734) and tubulin (Sigma, code sc-53029), which were detected with Alexa Fluor-labeled secondary antibodies (Thermofisher). Hoechst 33342 (1 mg/mL, Thermofisher H3570) was used to stain DNA. Samples were mounted on glass slides and imaged using Andor Dragonfly 505 spinning disk confocal system mounted on an Olympus IX83 inverted microscope. Figures were created with Adobe Photoshop CS5. All drugs were resuspended in DMSO, and 0.1% DMSO served as a carrier control.
# HeLa cells [3] = test: MTT antiproliferative assay against HeLa cells; format: cell-based, Human
# Description: as §1, with “control. […]” for “control.”
# tubulin = molecular target: T1, tubulin (Sus scrofa, UniProt P02554); test: Fluorescence-based tubulin polymerization assay; format: biochemical; conditions: relative to 1% DMSO control
# T1 construct: purchased Cytoskeleton, Inc
# Description: The fluorescence-based tubulin polymerization assay from Cytoskeleton, Inc. was used. […] The tubulin reaction mixture was prepared per manufacturer’s instructions, kept on ice, and used within ∼15 min of preparation. A Biotek Synergy H4 hybrid multimode plate reader was preheated to 37 °C. Prior to starting the assay, a half-area black 96-well plate was preheated within the plate reader. A volume of 5 μL of each of the tested samples was pipetted into separate wells of the plate and incubated in the warm plate reader for 1 min.
# [4] = Stability of compound in solution; format: physicochemical; conditions: in solution / over time
# [5] = set-up: method as in PMID 23927793; conditions: cell line not given; cited from earlier work
# [6] = Aqueous solubility by laser nephelometry; format: physicochemical; conditions: initial analysis
# [7] = 25 μM, averaged from two experiments
# [8] = Homo sapiens, MTT assay, 48 h treatment, relative to DMSO control, two independent determinations, each in quadruplicate, read-out: GI50 (μM)± SD
# [9] = Homo sapiens, MTT, 48 h, average and SD from two independent determinations, each in quadruplicate (footnote c), read-out: GI50 (μM) ± SD
# T1 sequence (P02554 whole entry): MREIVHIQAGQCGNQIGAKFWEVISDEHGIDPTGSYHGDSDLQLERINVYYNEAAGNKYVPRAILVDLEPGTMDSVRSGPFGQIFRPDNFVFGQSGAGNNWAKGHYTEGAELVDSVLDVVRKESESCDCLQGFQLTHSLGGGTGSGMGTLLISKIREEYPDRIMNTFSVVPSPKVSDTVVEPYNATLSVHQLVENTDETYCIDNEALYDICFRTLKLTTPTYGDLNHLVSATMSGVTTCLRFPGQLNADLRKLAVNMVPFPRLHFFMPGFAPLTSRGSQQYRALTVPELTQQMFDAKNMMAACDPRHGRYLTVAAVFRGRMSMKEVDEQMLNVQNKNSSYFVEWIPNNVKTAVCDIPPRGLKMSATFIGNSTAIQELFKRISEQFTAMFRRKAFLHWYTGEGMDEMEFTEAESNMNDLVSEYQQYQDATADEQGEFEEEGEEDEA
# T1 sequence (P02550 whole entry partner): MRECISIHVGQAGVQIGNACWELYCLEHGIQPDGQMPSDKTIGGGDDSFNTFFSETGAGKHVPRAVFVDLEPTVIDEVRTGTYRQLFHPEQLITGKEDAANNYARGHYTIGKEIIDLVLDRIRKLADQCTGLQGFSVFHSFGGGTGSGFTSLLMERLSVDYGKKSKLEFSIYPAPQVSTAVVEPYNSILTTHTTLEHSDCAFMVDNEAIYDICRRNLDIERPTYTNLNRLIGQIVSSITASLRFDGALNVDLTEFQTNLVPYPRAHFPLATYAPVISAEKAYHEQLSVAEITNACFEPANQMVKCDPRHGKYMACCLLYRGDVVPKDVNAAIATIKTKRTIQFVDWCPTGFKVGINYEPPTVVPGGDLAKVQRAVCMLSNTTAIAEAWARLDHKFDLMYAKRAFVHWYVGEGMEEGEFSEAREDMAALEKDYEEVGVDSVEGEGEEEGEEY
compound,measurement,setting,value
"5-(3,5-Difluorophenyl)-6-[4-(2-ethoxyethoxy)benzoyl]-2-(pent-4-yn-1-yl)-1,7-dihydro-4H-pyrrolo[2,3-d]pyrimidin-4-one [Compound 60]",GI50,PNT1A cells,48 ± 10 nM
same,apoptosis at the 30 hour time point (Annexin V fluorescence),HeLa cells [1],no significant differences
same,total numbers of cells that died following mitotic arrest,HeLa cells [1],85%
same,effect on interphase microtubules,HeLa cells [2],no striking effects on interphase microtubules
same,effect on spindle morphology,HeLa cells [2],remarkable effects on the spindle morphology
"6-[4-(2-Ethoxyethoxy)benzoyl]-5-(3-fluorophenyl)-2-(pent-4-yn-1-yl)-1,7-dihydro-4H-pyrrolo[2,3-d]pyrimidin-4-one [Compound 59]",GI50,"HeLa cells [3]; MTT, 48 h, average of eight repeats determined over 5 weeks (footnote d), read-out: GI50 (μM) ± SD",0.016 ± 0.004 µM
same,GI50,PNT1A cells,41 ± 11 nM
same,effect on in vitro tubulin polymerization,tubulin; [7],potent inhibition of microtubule assembly; also recorded: completely suppress tubulin polymerization
same,apoptosis at the 30 hour time point (Annexin V fluorescence),HeLa cells [1],no significant differences
same,total numbers of cells that died following mitotic arrest,HeLa cells [1],87%
same,effect on interphase microtubules,HeLa cells [2],no striking effects on interphase microtubules
same,effect on spindle morphology,HeLa cells [2],remarkable effects on the spindle morphology
"6-[4-(2-Ethoxyethoxy)benzoyl]-5-(6-fluoropyridin-2-yl)-2-(pent-4-yn-1-yl)-1,7-dihydro-4H-pyrrolo[2,3-d]pyrimidin-4-one [Compound 61]",GI50,"HeLa cells [3]; tested once, compound degraded in solution, read-out: GI50",0.0224 µM
same,stability,[4],unstable over time; also recorded: clear degradation of the compound in solution
"C#CCCCc1nc(=O)c2c(-c3ccccc3C)c(C(=O)c3ccccc3)[nH]c2[nH]1 [Compound 13, 6-Benzoyl-2-(pent-4-yn-1-yl)-5-(o-tolyl)-1,7-dihydro-4H-pyrrolo[2,3-d]pyrimidin-4-one]",GI50,HeLa cells [3]; [8],0.142 ± 0.044 µM
"C#CCCCc1nc(=O)c2c(-c3c(C)cccc3C)c(C(=O)c3ccccc3)[nH]c2[nH]1 [Compound 14, 6-Benzoyl-5-(2,6-dimethylphenyl)-2-(pent-4-yn-1-yl)-1,7-dihydro-4H-pyrrolo[2,3-d]pyrimidin-4-one]",GI50,HeLa cells [3]; [8],2.3 ± 0.09 µM
"C#CCCCc1nc(=O)c2c(-c3ccc(N4CCOCC4)cc3)c(C(=O)c3ccccc3)[nH]c2[nH]1 [Compound 15, 6-Benzoyl-5-(4-morpholinophenyl)-2-(pent-4-yn-1-yl)-1,7-dihydro-4H-pyrrolo[2,3-d]pyrimidin-4-one]",decrease in antiproliferative activity compared to lead compound 1,HeLa cells [3],500 fold
same,GI50,HeLa cells [3]; [8],11.3 ± 0.65 µM
"C#CCCCc1nc(=O)c2c(-c3ccccc3)c(C(=O)c3ccccc3C)[nH]c2[nH]1 [Compound 21, 6-(2-Methylbenzoyl)-2-(pent-4-yn-1-yl)-5-phenyl-1,7-dihydro-4H-pyrrolo[2,3-d]pyrimidin-4-one]",GI50,HeLa cells [3]; [8],0.062 ± 0.005 µM
same,GI50,"PNT1A cells; Homo sapiens, PNT1A",53 ± 12 nM
"C#CCCCc1nc(=O)c2c(-c3ccccc3)c(C(=O)c3ccc(N4CCOCC4)cc3)[nH]c2[nH]1 [Compound 27, 6-(4-Morpholinobenzoyl)-2-(pent-4-yn-1-yl)-5-phenyl-1,7-dihydro-4H-pyrrolo[2,3-d]pyrimidin-4-one]",GI50,HeLa cells [3]; [8],0.025 ± 0.002 µM
same,GI50,"PNT1A cells; Homo sapiens, PNT1A",49 ± 20 nM
"CC#CCCc1nc(=O)c2c(-c3ccccc3)c(C(=O)c3ccc(N4CCOCC4)cc3)[nH]c2[nH]1 [Compound 30, 6-(4-Morpholinobenzoyl)-2-(pent-3-yn-1-yl)-5-phenyl-1,7-dihydro-4H-pyrrolo[2,3-d]pyrimidin-4-one]",GI50,HeLa cells [3]; [8],0.043 ± 0.002 µM
same,reduction in activity following isomerization to the internal alkyne,"HeLa cells [3]; terminal versus internal alkyne analogues (1, 27 vs 31, 30)",2 fold
O=C(c1ccc(OCc2ccccc2)cc1)c1[nH]c2[nH]cnc(=O)c2c1-c1ccccc1 [Compound 32],GI50,[5],45 ± 4 nM
"C#CCCCc1nc(=O)c2c(-c3ccccc3)c(C(=O)c3ccc(OCCN4CCOCC4)cc3)[nH]c2[nH]1 [Compound 34, 6-[4-(2-Morpholinoethoxy)benzoyl]-2-(pent-4-yn-1-yl)-5-phenyl-1,7-dihydro-4H-pyrrolo[2,3-d]pyrimidin-4-one]",decrease in antiproliferative activity compared to lead compound 1,HeLa cells [3],~20 fold
same,GI50,HeLa cells [3]; [9],0.444 ± 0.03 µM
same,effect on in vitro tubulin polymerization,tubulin; [7],potent inhibition of microtubule assembly; also recorded: completely suppress tubulin polymerization
same,effect on interphase microtubules,HeLa cells [2],no striking effects on interphase microtubules
same,effect on spindle morphology,HeLa cells [2],remarkable effects on the spindle morphology
same,syntelic chromosome attachments,HeLa cells [2]; lower concentrations (GI25),still prevalent
same,aqueous solubility relative to the other compounds,[6],significantly more soluble
"C#CCCCc1nc(=O)c2c(-c3ccccc3)c(C(=O)c3ccc(OCCN4CCCC4)cc3)[nH]c2[nH]1 [Compound 35, 2-(Pent-4-yn-1-yl)-5-phenyl-6-{4-[2-(pyrrolidin-1-yl)ethoxy]benzoyl}-1,7-dihydro-4H-pyrrolo[2,3-d]pyrimidin-4-one]",decrease in antiproliferative activity compared to lead compound 1,HeLa cells [3],~150 fold
same,GI50,HeLa cells [3]; [9],2.87 ± 0.103 µM
same,aqueous solubility relative to the other compounds,[6],significantly more soluble
"CC(=O)O[C@H]1C(=O)[C@@]2(C)[C@H]([C@H](OC(=O)c3ccccc3)[C@]3(O)C[C@H](OC(=O)[C@H](O)[C@@H](NC(=O)c4ccccc4)c4ccccc4)C(C)=C1C3(C)C)[C@]1(OC(C)=O)CO[C@@H]1C[C@@H]2O [Paclitaxel, paclitaxel, reference compound]",effect on in vitro tubulin polymerization,tubulin; 3 μM,promotes microtubule formation
same,effect on in vitro tubulin polymerization,"tubulin; 3 μM, listed as paclitaxel",potent enhancement of microtubule formation
